Laboratory results published in ChEMBL document CHEMBL1201862, “PubChem BioAssay data set” (2004).
The source made the active and inactive calls. Cut-off read from the data, not from the text of the source, for most assays here: actives have a measured EC50 and inactives only a lower limit.

How the values were obtained:
[1] = test system: H9c2; test: cells; type: functional, cell-based; details: Rattus norvegicus, H9c2, Myocardium;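 note: confirmatory concentration-response retest of ultra-high-throughput screening hits for modulation of myocardial damage; cell death induced by hydrogen peroxide oxidative stress; compound pretreatment for 60 min then peroxide exposure for 2 h; potency is for protecting the cells against peroxide damage rather than for killing them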
[2] = target: T1, Zinc finger protein mex-5 (Caenorhabditis elegans, UniProt Q9XUB2); test: potency of MEX-5 RNA-binding blockers – biochemical, C. elegans, fluorescence polarization, dose response (AID 1960)
T1 sequence (Q9XUB2 whole entry): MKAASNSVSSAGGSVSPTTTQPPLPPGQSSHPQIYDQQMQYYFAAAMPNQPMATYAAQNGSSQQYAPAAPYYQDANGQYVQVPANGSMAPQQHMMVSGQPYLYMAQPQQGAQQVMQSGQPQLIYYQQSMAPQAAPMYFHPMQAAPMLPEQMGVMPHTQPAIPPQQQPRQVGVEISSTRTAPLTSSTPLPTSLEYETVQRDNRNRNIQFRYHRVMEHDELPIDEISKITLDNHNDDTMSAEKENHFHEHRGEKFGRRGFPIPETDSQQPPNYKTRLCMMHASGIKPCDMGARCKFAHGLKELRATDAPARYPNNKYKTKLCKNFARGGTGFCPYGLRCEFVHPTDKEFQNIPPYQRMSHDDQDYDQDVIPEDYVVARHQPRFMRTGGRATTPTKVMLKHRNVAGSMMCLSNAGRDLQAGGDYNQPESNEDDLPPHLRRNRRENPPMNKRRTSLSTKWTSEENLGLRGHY

[3] = target: T2, RNA-binding protein pos-1 (Caenorhabditis elegans, UniProt G5EF15); test: disruptors of C. elegans POS-1 RNA interaction – biochemical, fluorescence polarization, dose response (AID 1964);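 note: purified POS-1 fused to maltose binding protein made in E. coli; potency of compounds blocking POS-1 binding to fluorescent RNA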
T2 sequence (G5EF15 whole entry): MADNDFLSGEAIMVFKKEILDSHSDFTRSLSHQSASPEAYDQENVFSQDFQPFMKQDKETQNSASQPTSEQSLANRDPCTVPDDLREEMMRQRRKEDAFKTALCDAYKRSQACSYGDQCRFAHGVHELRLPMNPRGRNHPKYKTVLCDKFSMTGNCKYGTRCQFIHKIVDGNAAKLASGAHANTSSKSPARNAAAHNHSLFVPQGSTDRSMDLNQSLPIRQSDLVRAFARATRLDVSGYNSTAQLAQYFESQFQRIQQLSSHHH

[4] = target: T3, Calpain-2 catalytic subunit (Sus scrofa, UniProt P43367); test: m-calpain protease blockers, concentration series – biochemical, fluorogenic peptide substrate, dose response (AID 1420); type: functional
T3 sequence (P43367 whole entry): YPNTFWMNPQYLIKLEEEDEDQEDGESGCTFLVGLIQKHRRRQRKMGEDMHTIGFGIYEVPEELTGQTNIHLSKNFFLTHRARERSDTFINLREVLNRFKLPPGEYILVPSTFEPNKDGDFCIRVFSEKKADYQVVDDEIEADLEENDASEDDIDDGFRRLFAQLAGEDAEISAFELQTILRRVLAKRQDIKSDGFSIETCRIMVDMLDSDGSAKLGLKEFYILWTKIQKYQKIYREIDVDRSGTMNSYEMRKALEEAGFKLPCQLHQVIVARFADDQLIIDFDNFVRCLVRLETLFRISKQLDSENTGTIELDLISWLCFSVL

[5] = NIH-3T3 fibroblast cytotoxicity, dose response, cytotoxicity control, cell-based, fluorescence, Alamar Blue, secondary assay (AID 2327); type: functional;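 note: NIH-3T3 mouse fibroblasts cultured with fluconazole at 8 µg/mL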
[6] = fluconazole-exposed Candida albicans growth modulators – fluorescence, retest, confirmation (AID 2467); type: functional, cell-based
[7] = target: T4, Corticotropin-releasing factor receptor 2/Corticotropin-releasing factor-binding protein (Homo sapiens, UniProt P24387+Q13324); test: activators of CRF receptor 2 with binding protein – uHTS hits, confirmation (AID 602473); type: functional; details: read-out: EC50_Mean
T4 sequence (Q13324 whole entry): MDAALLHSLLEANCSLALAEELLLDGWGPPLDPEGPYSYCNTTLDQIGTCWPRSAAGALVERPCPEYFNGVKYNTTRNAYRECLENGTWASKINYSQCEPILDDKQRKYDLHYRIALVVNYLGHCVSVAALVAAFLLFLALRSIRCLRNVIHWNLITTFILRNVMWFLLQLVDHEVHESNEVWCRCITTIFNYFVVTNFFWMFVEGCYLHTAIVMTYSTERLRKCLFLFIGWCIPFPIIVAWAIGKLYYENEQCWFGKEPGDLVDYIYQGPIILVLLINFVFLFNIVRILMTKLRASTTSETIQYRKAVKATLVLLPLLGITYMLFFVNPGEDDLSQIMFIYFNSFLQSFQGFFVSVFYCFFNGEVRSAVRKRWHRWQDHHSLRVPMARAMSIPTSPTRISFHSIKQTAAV
T4 sequence (P24387 whole entry): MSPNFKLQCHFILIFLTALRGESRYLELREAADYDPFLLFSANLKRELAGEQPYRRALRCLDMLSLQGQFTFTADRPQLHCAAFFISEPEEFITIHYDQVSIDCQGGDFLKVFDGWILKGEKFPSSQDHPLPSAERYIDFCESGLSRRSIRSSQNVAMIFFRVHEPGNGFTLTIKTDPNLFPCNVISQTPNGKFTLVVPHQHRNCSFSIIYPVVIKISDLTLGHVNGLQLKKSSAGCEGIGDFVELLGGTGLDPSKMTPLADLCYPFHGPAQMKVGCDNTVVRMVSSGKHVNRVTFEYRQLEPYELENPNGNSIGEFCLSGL

[8] = target: T4, Corticotropin-releasing factor receptor 2/Corticotropin-releasing factor-binding protein; test: Dose Response confirmation of uHTS hits for small molecule antagonists of the CRF-binding protein and CRF-R2 receptor complex.; type: functional; details: read-out: IC50_Mean
[9] = target: Cytochrome P450 2C9 (Homo sapiens, UniProt P11712)
Chain of Cytochrome P450 2C9 (P11712 whole entry): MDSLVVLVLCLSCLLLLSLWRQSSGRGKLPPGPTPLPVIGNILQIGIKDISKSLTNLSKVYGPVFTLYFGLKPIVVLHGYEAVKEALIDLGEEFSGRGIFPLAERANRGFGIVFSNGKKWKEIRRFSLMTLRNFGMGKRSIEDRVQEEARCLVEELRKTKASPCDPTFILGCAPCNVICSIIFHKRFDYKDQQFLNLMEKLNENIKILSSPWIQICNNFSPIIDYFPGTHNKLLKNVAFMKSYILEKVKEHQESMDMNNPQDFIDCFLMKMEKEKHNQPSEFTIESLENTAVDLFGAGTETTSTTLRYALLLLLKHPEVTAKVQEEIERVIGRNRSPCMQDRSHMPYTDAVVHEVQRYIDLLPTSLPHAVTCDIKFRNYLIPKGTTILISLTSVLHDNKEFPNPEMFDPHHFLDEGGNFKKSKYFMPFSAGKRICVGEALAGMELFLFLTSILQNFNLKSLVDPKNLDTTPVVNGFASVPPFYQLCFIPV

COc1ccc(CCNC(=O)C(=O)NCC2CCCN2S(=O)(=O)c2cc(C)ccc2C)cc1 (stereo not given)
IC50 [1]: 34.1 µM (inactive)

CCCCC1=CC2=CC(=O)C(C)(OC(=O)c3ccco3)C(=O)C2=CO1 (stereo not given)
EC50 [2]: 16.2 µM (active) | EC50 [3]: 20.5 µM (active)

C=CCSc1nnc(N2C(=O)C(O)=C(C(=O)c3ccco3)C2c2ccccc2F)s1 (stereo not given)
EC50 [2]: 54.8 µM (active) | EC50 [3]: 48.3 µM (active)

CN(C)S(=O)(=O)c1ccc2c(c1)nc(CCC(=O)NCc1ccc(Cl)cc1)n2C
IC50 [4]: 6.82 µM (not active)

O=C1/C(=C/c2ccc(Br)cc2)Oc2cc(O)ccc21
EC50 [2]: 6.67 µM (active) | EC50 [3]: 7.71 µM (active)

O=P(Nc1ccccc1)(Oc1ccccc1)Oc1ccccc1
IC50 [1]: > 79 µM (inactive)

CCCCOP(=O)(c1ccc(N(C)C)cc1)C(O)c1ccccc1F (stereo not given)
EC50 [5]: > 150 µM (inactive) | EC50 [6]: 2.56 µM (active)

CCC(C)n1c(=N)c(C#N)cc2c(=O)n3cc(C)ccc3nc21 (stereo not given)
EC50 [2]: 254 µM (inconclusive) | EC50 [3]: > 300 µM (not active)

Cc1ccccc1Nc1scc(-c2ccc(Cl)cc2)[n+]1-c1ccccc1C
IC50 [4]: > 50 µM (not active)

CCc1cc(C(=O)Nc2ccc(OC)nc2)sc1C
EC50 [2]: 9.29 µM (active) | EC50 [3]: 11.8 µM (active)

CC1(C)C(=O)OC(c2c(F)c(F)c(F)c(F)c2F)C2(CCCCC2)C1=O (stereo not given)
IC50 [4]: 4.17 µM (not active)

CNC(=O)NC(=O)C(C)Oc1ccccc1F (stereo not given)
IC50 [4]: < 0.4 µM (not active)

COc1ccc(OC)c(-c2cc(C(=O)O)c3cc4ccccc4cc3n2)c1
EC50 [7]: > 53 µM (inactive) | IC50 [8]: > 47.1 µM (inactive) | AC50 [9]: 3.16 µM (inconclusive)

O=C(CSc1nc(-c2ccco2)cc(C(F)(F)F)n1)NCCc1ccccc1
EC50 [5]: 136 µM (inconclusive) | EC50 [6]: > 38 µM (not active)

O=C(Nc1ccc2c(c1)OCO2)c1cnn2c(C(F)(F)F)cc(-c3ccco3)nc12
IC50 [1]: > 79 µM (inactive)

Cc1cc2c3c(c1)C(C)CC(C)(C)N3C(=O)C2=O (stereo not given)
EC50 [2]: > 300 µM (not active) | EC50 [3]: > 300 µM (not active)

CCCc1cc(=O)oc2c(CNc3ccc(OCC)cc3)c(O)ccc12
IC50 [1]: > 79 µM (inactive)

Cc1ccc(S(=O)(=O)NNC(=S)NC(=O)c2ccc([N+](=O)[O-])cc2)cc1
EC50 [2]: 21.1 µM (active) | EC50 [3]: 31.8 µM (active)

Oc1nc2cc3c(cc2cc1CN(Cc1nnnn1CC1CCCO1)C1CCCCC1)OCO3 (stereo not given)
IC50 [1]: 27.5 µM (active)

CCN(CC)c1nc(-c2nnn[nH]2)nc(N(CC)CC)n1
EC50 [2]: > 300 µM (not active) | EC50 [3]: > 300 µM (not active)

Oc1ccccc1CN(Cc1ccco1)CC(O)COCc1ccc(Cl)cc1 (stereo not given)
IC50 [4]: 7.83 µM (not active)

CSCc1cc(N2CCOCC2)nc(SCc2ccc(Cl)cc2Cl)n1
IC50 [4]: 3.57 µM (not active)

CC(C)CCN(C(=S)NC(=O)C1CCCCC1)c1c(N)n(Cc2ccccc2)c(=O)[nH]c1=O
IC50 [4]: > 50 µM (not active)
